Source: patent US11161856B2 (H. Lundbeck A/S, priority 2017, dated 2021)

Assays:
MGLL = molecular target: T1, MGLL (Mus musculus, UniProt O35678); experiment: In vitro competitive activity-based protein profiling, mouse brain proteome (MGLL); type: biochemical; conditions: concentration not given (μM)
T1 construct: Brain; from tissue; host or cells: mouse brain proteome
T1 sequence (O35678 1-303): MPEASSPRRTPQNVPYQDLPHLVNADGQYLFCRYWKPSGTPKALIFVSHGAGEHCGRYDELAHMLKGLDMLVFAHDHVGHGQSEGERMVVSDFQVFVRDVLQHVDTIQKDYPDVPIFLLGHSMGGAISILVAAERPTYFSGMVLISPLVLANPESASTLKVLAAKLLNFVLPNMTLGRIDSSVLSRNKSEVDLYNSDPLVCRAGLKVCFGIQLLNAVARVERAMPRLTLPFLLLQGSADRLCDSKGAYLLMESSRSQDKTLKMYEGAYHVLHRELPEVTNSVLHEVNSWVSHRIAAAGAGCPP

ABHD6 = molecular target: T2, ABHD6 (Mus musculus, UniProt Q8R2Y0); experiment: In vitro competitive activity-based protein profiling, mouse brain proteome (ABHD6); type: biochemical; conditions: mouse brain proteome; concentration not given (μM)
T2 construct: Brain; from tissue; host or cells: mouse brain proteome
T2 sequence (Q8R2Y0 1-336): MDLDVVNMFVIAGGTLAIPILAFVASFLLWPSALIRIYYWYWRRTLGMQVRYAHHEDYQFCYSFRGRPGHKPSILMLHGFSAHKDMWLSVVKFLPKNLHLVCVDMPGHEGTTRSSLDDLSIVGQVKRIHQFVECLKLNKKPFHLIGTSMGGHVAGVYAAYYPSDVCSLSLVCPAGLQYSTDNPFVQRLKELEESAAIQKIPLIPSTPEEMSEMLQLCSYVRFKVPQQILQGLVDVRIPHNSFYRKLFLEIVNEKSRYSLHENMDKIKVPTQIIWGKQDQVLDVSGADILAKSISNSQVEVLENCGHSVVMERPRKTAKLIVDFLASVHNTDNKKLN
Protocol: [The source words this procedure for another target and reports this target under the same test.] In Vitro Competitive Activity-Based Protein Profiling.
Proteomes (human prefrontal cortex or cell membrane fractions) (50 μL, 1.0 mg/mL total protein concentration) were preincubated with varying concentrations of inhibitors at 37° C. After 30 min, FP-Rh or HT-01 (1.0 μL, 50 μM in DMSO) was added and the mixture was incubated for another 30 min at room temperature. Reactions were quenched with SDS loading buffer (15 μL-4×) and run on SDS-PAGE.

SMILES: CS(=O)(=O)N1CCC2(CCN(c3cc(C(F)(F)F)ccc3CN3CCN(C(=O)OC(C(F)(F)F)C(F)(F)F)CC3)CC2)C1 [Example 185, 1,1,1,3,3,3-Hexafluoropropan-2-yl 4-(2-(2-(methylsulfonyl)-2,8-diazaspiro[4.5]decan-8-yl)-4-(trifluoromethyl)benzyl) piperazine-1-carboxylate]
- % Inh MGLL Brain (Mouse, μM) (MGLL): ### (### is ≥75%)
- % Inh ABHD6 Brain (Mouse, μM) (ABHD6): # (# is ≤25%)

SMILES: CS(=O)(=O)N1CC2(CCN(c3cc(C(F)(F)F)ccc3CN3CCN(C(=O)OC(C(F)(F)F)C(F)(F)F)CC3)C2)C1 [Example 186, 1,1,1,3,3,3-Hexafluoropropan-2-yl 4-(2-(2-(methylsulfonyl)-2,6-diazaspiro[3,4]octan-6-yl)-4-(trifluoromethyl)benzyl) piperazine-1-carboxylate]
- % Inh MGLL Brain (Mouse, μM) (MGLL): ### (### is ≥75%)
- % Inh ABHD6 Brain (Mouse, μM) (ABHD6): # (# is ≤25%)

SMILES: O=C(OC(C(F)(F)F)C(F)(F)F)N1CCC2(CCN(Cc3ccc(C(F)(F)F)cc3N3CCCCC3)CC2)C1 [Example 187, 1,1,1,3,3,3-Hexafluoropropan-2-yl 8-(2-(piperidin-1-yl)-4-(trifluoromethyl)benzyl)-2,8-diazaspiro[4.5]decane-2-carboxylate]
- % Inh MGLL Brain (Mouse, μM) (MGLL): ### (### is ≥75%)
- % Inh ABHD6 Brain (Mouse, μM) (ABHD6): # (# is ≤25%)

SMILES: O=C(OC(C(F)(F)F)C(F)(F)F)N1CCC2(CCN(Cc3ccc(C(F)(F)F)cc3N3CC4COCC4C3)CC2)C1 (stereo not shown) [Example 188, 1,1,1,3,3,3-Hexafluoropropan-2-yl 8-(2-(tetrahydro-1H-furo[3,4-c]pyrrol-5(3H)-yl)-4-(trifluoromethyl)benzyl)-2,8-diazaspiro[4.5]decane-2-carboxylate]
- % Inh MGLL Brain (Mouse, μM) (MGLL): ### (### is ≥75%)
- % Inh ABHD6 Brain (Mouse, μM) (ABHD6): # (# is ≤25%)

SMILES: CC(=O)N1CCC2(CCN(c3cc(C(F)(F)F)ccc3CN3CCN(C(=O)OC(C(F)(F)F)C(F)(F)F)CC3)CC2)C1 [Example 189, 1,1,1,3,3,3-Hexafluoropropan-2-yl 4-(2-(2-acetyl-2,8-diazaspiro[4.5]decan-8-yl)-4-(trifliioromethyl)benzyl) piperazine-1-carboxylate]
- % Inh MGLL Brain (Mouse, μM) (MGLL): ### (### is ≥75%)
- % Inh ABHD6 Brain (Mouse, μM) (ABHD6): # (# is ≤25%)

SMILES: O=C(OC(C(F)(F)F)C(F)(F)F)N1CCC2(CCN(Cc3ccc(C(F)(F)F)cc3N3CC4CCC(C3)O4)CC2)C1 [Example 190, 1,1,1,3,3,3-Hexafluoropropan-2-yl 8-(2-(8-oxa-3-azabicyclo[3.2.1]octan-3-yl)-4-(trifluoromethyl)benzyl)-2,8-diazaspiro[4.5]decane-2-carboxylate]
- % Inh MGLL Brain (Mouse, μM) (MGLL): ### (### is ≥75%)
- % Inh ABHD6 Brain (Mouse, μM) (ABHD6): # (# is ≤25%)

SMILES: O=C(OC(C(F)(F)F)C(F)(F)F)N1CCC2(CCN(Cc3ccc(Cl)cc3N3CCCCC3)CC2)C1 [Example 191, 1,1,1,3,3,3-Hexafluoropropan-2-yl 8-(4-chloro-2-(piperidin-1-yl)benzyl)-2,8-diazaspiro[4.5]decane-2-carboxylate]
- % Inh MGLL Brain (Mouse, μM) (MGLL): ### (### is ≥75%)
- % Inh ABHD6 Brain (Mouse, μM) (ABHD6): # (# is ≤25%)

SMILES: O=C(OC(C(F)(F)F)C(F)(F)F)N1CCC2(CCN(Cc3ccc(C(F)(F)F)cc3N3CCC(F)CC3)CC2)C1 [Example 192, 1,1,1,3,3,3-Hexafluoropropan-2-yl 8-(2-(4-fluoropiperidin-1-yl)-4-(trifluoromethyl)benzyl)-2,8-diazaspiro[4.5]decane-2-carboxylate]
- % Inh MGLL Brain (Mouse, μM) (MGLL): ### (### is ≥75%)
- % Inh ABHD6 Brain (Mouse, μM) (ABHD6): # (# is ≤25%)

SMILES: CC(=O)N1CCCc2cccc(CN3CCC4(CC3)CCN(C(=O)OC(C(F)(F)F)C(F)(F)F)C4)c21 [Example 193, 1,1,1,3,3,3-Hexafluoropropan-2-yl 8-((1-acetyl-1,2,3,4-tetrahydroquinolin-8-yl)methyl)-2,8-diazaspiro[4.5]decane-2-carboxylate]
- % Inh MGLL Brain (Mouse, μM) (MGLL): ## (## is between 25 and 75%)
- % Inh ABHD6 Brain (Mouse, μM) (ABHD6): # (# is ≤25%)

SMILES: O=C(O)C1CCN(c2cc(Cl)ccc2CN2CCC3(CC2)CCN(C(=O)OC(C(F)(F)F)C(F)(F)F)C3)CC1 [Example 194, l-(5-Chloro-2-((2-(((1.1,1,3,3,3-hexafluoropropan-2-yl)oxy)carbonyl)-2,8-diazaspiro[4.5]decan-8-yl)methyl)phenyI)piperidine-4-carboxylic acid]
- % Inh MGLL Brain (Mouse, μM) (MGLL): ### (### is ≥75%)
- % Inh ABHD6 Brain (Mouse, μM) (ABHD6): # (# is ≤25%)

SMILES: O=C(O)C1CCN(c2cc(C(F)(F)F)ccc2CN2CCC3(CC2)CCN(C(=O)OC(C(F)(F)F)C(F)(F)F)C3)CC1 [Example 195, l-(2-((2-(((l,1,1,3,3,3-Hexafluoropropan-2-yl)oxy)carbonyl)-2,8-diazaspino[4.5]decan-8-yl)melhyl)-5-(trifluoromethyl)phenyl)piperidine-4-carboxylic acid]
- % Inh MGLL Brain (Mouse, μM) (MGLL): ### (### is ≥75%)
- % Inh ABHD6 Brain (Mouse, μM) (ABHD6): # (# is ≤25%)

SMILES: CS(=O)(=O)N1CCC2(CCN(c3cc(C(F)(F)F)ccc3CN3CCN(C(=O)OC(C(F)(F)F)C(F)(F)F)CC3)C2)CC1 [Example 196, 1,1,1,3,3,3-Hexafluoropropan-2-yl 4-(2-(8-(methylsulfonyl)-2,8-diazaspiro[4.5]decan-2-yl)-4-(trifluoromcthyl)benzyl)pipera zinc-1-carboxylate]
- % Inh MGLL Brain (Mouse, μM) (MGLL): ### (### is ≥75%)
- % Inh ABHD6 Brain (Mouse, μM) (ABHD6): # (# is ≤25%)

SMILES: CC(=O)N1CCC2(CC1)CCN(c1cc(C(F)(F)F)ccc1CN1CCN(C(=O)OC(C(F)(F)F)C(F)(F)F)CC1)C2 [Example 197, 1.1.1,3,3.3-Hexafluoropropan-2-yl 4-(2-(8-acetyl-2,8-diazaspiro[4.5]decan-2-yl)-4-(trifluoromethyl)benzyl)pipera zine-l-carboxylate]
- % Inh MGLL Brain (Mouse, μM) (MGLL): ### (### is ≥75%)
- % Inh ABHD6 Brain (Mouse, μM) (ABHD6): # (# is ≤25%)

SMILES: CC(=O)N1CCC2(CC1)CN(c1cc(Cl)ccc1CN1CCN(C(=O)OC(C(F)(F)F)C(F)(F)F)CC1)C2 [Example 198, 1.1.1,3,3,3-Hexafluoropropan-2-yl 4-(2-(7-acetyl-2,7-diazaspiro[3.5]nonan-2-yl)-4-chlorobenzyl)piperazine-1-carboxylate]
- % Inh MGLL Brain (Mouse, μM) (MGLL): ### (### is ≥75%)
- % Inh ABHD6 Brain (Mouse, μM) (ABHD6): # (# is ≤25%)

SMILES: CC(=O)N1CCC2(CC1)CN(c1cc(C(F)(F)F)ccc1CN1CCN(C(=O)OC(C(F)(F)F)C(F)(F)F)CC1)C2 [Example 199, 1.1,1.3.3,3-Hexafluoropropan-2-yl 4-(2-(7-acetyl-2,7-diazaspiro[3.5]nonan-2-yl)-4-(trifluoromethyl)benzyl)pipera zine-l-carboxylate]
- % Inh MGLL Brain (Mouse, μM) (MGLL): ### (### is ≥75%)
- % Inh ABHD6 Brain (Mouse, μM) (ABHD6): # (# is ≤25%)

SMILES: CC(=O)N1CC2CN(c3cc(C(F)(F)F)ccc3CN3CCN(C(=O)OC(C(F)(F)F)C(F)(F)F)CC3)CC2C1 (stereo not drawn) [Example 200, 1,1,1,3,3,3-Hexafluoropropan-2-yl 4-(2-(5-acetylhexahydropyrrolo[3,4-c]pyrrol-2(lH)-yl)-4-(trifluoromethyl)benzyl)pipera zine-l-carboxylate]
- % Inh MGLL Brain (Mouse, μM) (MGLL): ### (### is ≥75%)
- % Inh ABHD6 Brain (Mouse, μM) (ABHD6): # (# is ≤25%)

SMILES: CS(=O)(=O)N1CC2CN(c3cc(C(F)(F)F)ccc3CN3CCN(C(=O)OC(C(F)(F)F)C(F)(F)F)CC3)CC2C1 (stereo not shown) [Example 201, 1,1,1,3,3,3-Hexafluoropropan-2-yl 4-(2-(5-(methylsulfonyl)hexahydropyrrolo[3,4-c]pyrrol-2(lH)-yl)-4-(tnfluoromethyl)benzyl)pipera zinc-1-carboxylate]
- % Inh MGLL Brain (Mouse, μM) (MGLL): ### (### is ≥75%)
- % Inh ABHD6 Brain (Mouse, μM) (ABHD6): ## (## is between 25 and 75%)

SMILES: CC(=O)N1CC2CN(c3cc(Cl)ccc3CN3CCN(C(=O)OC(C(F)(F)F)C(F)(F)F)CC3)CC2C1 (stereo not shown) [Example 202, 1,1,1,3,3,3-Hexafluoropropan-2-yl 4-(2-(5-acetylhexahydropyrrolo[3,4-c]pyrrol-2(lH)-yl)-4-chlorobenzyl)piperazine-1 - carboxylate]
- % Inh MGLL Brain (Mouse, μM) (MGLL): ### (### is ≥75%)
- % Inh ABHD6 Brain (Mouse, μM) (ABHD6): ## (## is between 25 and 75%)

SMILES: CS(=O)(=O)N1CC2CN(c3cc(Cl)ccc3CN3CCN(C(=O)OC(C(F)(F)F)C(F)(F)F)CC3)CC2C1 (stereo not shown) [Example 203, 1,1,1,3,3,3-Hexafluoropropan-2-yl 4-(4-chloro-2-(5-(methylsulfonyl)hexahydropyrrolo[3,4-c]pyrrol-2(lH)-yl)benzyl)piperazine-l - carboxylate]
- % Inh MGLL Brain (Mouse, μM) (MGLL): ### (### is ≥75%)
- % Inh ABHD6 Brain (Mouse, μM) (ABHD6): ### (### is ≥75%)

SMILES: CC(=O)N1CCCC12CCN(c1cc(Cl)ccc1CN1CCN(C(=O)OC(C(F)(F)F)C(F)(F)F)CC1)CC2 [Example 204, 1,1,1,3,3,3-Hexafluoropropan-2-yl 4-(2-(1-acetyl-1,8-diazaspiro[4.5]decan-8-yl)-4-chlorobenzyl)piperazine-l-carboxylate]
- % Inh MGLL Brain (Mouse, μM) (MGLL): ### (### is ≥75%)
- % Inh ABHD6 Brain (Mouse, μM) (ABHD6): # (# is ≤25%)
